From US8067603B2 (priority 2003, dated 2011)
Where “and” joins values, the source holds several entries; their conditions need not be identical. Identical values can stand only once.

Experiments:
Male Wistar rats = details: rat, in vivo
rats = details: single i.v. dose 10 minutes before agonist: J-113397 1 mg/kg, naloxone 2 mg/kg

SMILES | effect on food intake versus the vehicle treated group (Male Wistar rats; ip) | increase in food intake: antagonism by the opiate receptor antagonist naloxone (Male Wistar rats; ip) | Mean ± S.E.M. food intake 120 min after ligand administration (Male Wistar rats) | effect on the nociceptin-induced decrease in blood pressure (rats)
CN1CC[C@]23c4c5ccc(O)c4O[C@H]2[C@@H](O)C=C[C@H]3[C@H]1C5 [Morphine, morphine] | dose-dependent increase in food-intake | antagonized | – | –
C=CCN1CC[C@]23c4c5ccc(O)c4O[C@H]2C(=O)CC[C@@]3(O)[C@H]1C5 [naloxone] | no effect on food intake | – | 0.09 ± 0.09 g and 0.05 ± 0.001 g | without effect
